Patent publication US10004773B2, “Plant compositions and methods and uses thereof for treating elevated glucocorticoid related disorders, and anxiety” (University of Ottawa, priority 2012, dated 2018)

System: nursery piglets
Test: Feeding study in weaned nursery piglets
Type: in vivo, pig
Procedure: The test materials used in the study were the Souroubea gilgii and purified betulinic acid. The Souroubea gigli plant samples (labelled SS for Souroubea sp.) were harvested from the canals in Tortuguero, Costa Rica. The samples were chipped, dried and powdered. Samples were dried overnight in a commercial plant drier at 35° C. and ground to 1 mm mesh.
The objective of the study was to investigate the production performance and stress related responses in nursery piglets that were fed a supplemented of either dried Souroubea gilgii plant material (SS) or one of its active anxiolytic compounds, purified betulinic acid (BA). The following parameters were evaluated: (1) plasma levels of Acute Phase Proteins (APP) and cortisol, (2) behavioral and stress related aggressive interactions and injuries (aggressive pushing, number of fights and the duration of fights in seconds), (3) production performance parameters (average daily gain (ADG), feed intake, feed efficiency (kg feed/kg body weight gain)) and (4) health evaluation (incidence of disease, disease treatments and deaths).
The study included 300 piglets that were 21 days of age at the start of the experiment (day of weaning and first day of treatment). The piglets were treated at days 0 and 21 and monitored over a 39 day period. The pigs were 60 days of age at the end of the study. Pigs were randomly assigned to one of five treatment groups, with 60 pigs in each group: (1) Group A. untreated control, (2) Group B. 0.5 mg BA/kg body weight, (3) Group C. 1 mg BA/kg body weight, (4) Group D. 2 mg BA/kg body weight and (5) Group E. SS group, 500 mg ground SS leaves/kg body weight (BA concentration equivalent to 0.5 mg BA/kg body weight).
Blood samples from 8 pigs in each treatment group were drawn on days 0, 2, 7, 14, 21 and 39 for a total of 240 blood samples, to determine plasma APP and cortisol levels. The same pigs from each treatment group were used for each blood sample day. Pigs were also weighed and feed intake was measured on these days to calculate performance parameters.

For `C=C(C)[C@@H]1CC[C@]2(C(=O)O)CC[C@]3(C)[C@H](CC[C@@H]4[C@@]5(C)CC[C@H](O)C(C)(C)[C@@H]5CC[C@]43C)[C@@H]12` [BA, betulinic acid], the number of wounds (2 mg/kg (Group D)) was “appeared to reduce”, the “aggressive behavior and extent of injuries” value (BA doses below 2 mg/kg) was “little effect” and the plasma cortisol levels (day 2, Group C 1 mg/kg BA, vs Groups A and B, p<0.01) was “significantly lower”. The plasma cortisol levels (day 2, Group D 2 mg/kg BA, vs Groups A and B, p<0.01) was “significantly lower”, the plasma cortisol levels (days 7 and 14, Group D 2 mg BA/kg, vs Group A, p<0.05) was “significantly lower” and the plasma cortisol levels (first 14 days post-weaning, 2 mg BA/kg) was “significantly reduced”. For the same compound, the “dose required to reduce plasma cortisol in the first days after weaning” value (piglets) was 1 mg BA/kg.
